Patent publication US11739098B2 (BRISTOL-MYERS SQUIBB COMPANY, priority 2017, dated 2023)

Experiments:
Format in all cases: cell-based
human TLR9 = biological target: T1, human TLR9 (Homo sapiens, UniProt Q9NR96); assay: TLR9 inhibition reporter assay (HEK-Blue cells, SEAP reporter, ODN2006 stimulation); details: HEK-Blue cells overexpressing human TLR9, SEAP reporter, ODN2006 5 nM
T1 construct: host or cells: HEK-Blue cells (HEK293-derived reporter line)
T1 sequence (Q9NR96 26-1032): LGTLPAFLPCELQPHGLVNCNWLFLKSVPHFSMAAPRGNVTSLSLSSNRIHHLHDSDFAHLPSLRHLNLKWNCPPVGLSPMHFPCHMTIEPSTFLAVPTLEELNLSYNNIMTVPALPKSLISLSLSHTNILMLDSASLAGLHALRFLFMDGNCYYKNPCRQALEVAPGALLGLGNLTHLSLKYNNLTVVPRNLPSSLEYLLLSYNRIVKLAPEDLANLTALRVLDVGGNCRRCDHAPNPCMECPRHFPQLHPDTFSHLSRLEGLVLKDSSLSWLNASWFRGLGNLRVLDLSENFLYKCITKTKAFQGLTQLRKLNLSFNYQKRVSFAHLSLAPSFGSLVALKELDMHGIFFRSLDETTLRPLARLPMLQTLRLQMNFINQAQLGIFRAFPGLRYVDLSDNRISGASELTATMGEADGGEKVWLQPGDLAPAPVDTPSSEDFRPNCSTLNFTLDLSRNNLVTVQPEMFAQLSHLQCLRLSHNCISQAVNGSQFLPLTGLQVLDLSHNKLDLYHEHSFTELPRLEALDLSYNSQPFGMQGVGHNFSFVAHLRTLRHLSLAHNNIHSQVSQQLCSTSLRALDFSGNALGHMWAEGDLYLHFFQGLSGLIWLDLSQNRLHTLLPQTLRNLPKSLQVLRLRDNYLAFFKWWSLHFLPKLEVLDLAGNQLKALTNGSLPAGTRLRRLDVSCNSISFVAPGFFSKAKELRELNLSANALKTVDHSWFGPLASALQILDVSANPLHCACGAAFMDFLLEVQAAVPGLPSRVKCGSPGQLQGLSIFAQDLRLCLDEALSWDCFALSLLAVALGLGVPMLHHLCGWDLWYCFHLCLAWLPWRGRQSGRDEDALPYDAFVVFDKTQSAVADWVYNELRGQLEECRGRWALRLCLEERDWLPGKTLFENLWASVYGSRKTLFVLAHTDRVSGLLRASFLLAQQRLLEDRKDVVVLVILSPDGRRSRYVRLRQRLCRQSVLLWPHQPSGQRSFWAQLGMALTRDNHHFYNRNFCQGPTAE
In short: (§1)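 Percent inhibition of agonist-induced SEAP secretion in HEK-Blue cells after 22 h at 37 °C. Stimuli: 7.5 μM gardiquimod, 15.9 μM R848, 5 nM ODN2006 for TLR7, TLR8 and TLR9, added after 30 min compound exposure over a 0.05 nM–50 μM range.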

human TLR7 = biological target: T2, human TLR7 (Homo sapiens, UniProt Q9NYK1); assay: TLR7 inhibition reporter assay (HEK-Blue cells, SEAP reporter, gardiquimod stimulation); details: HEK-Blue cells overexpressing human TLR7, SEAP reporter, gardiquimod 7.5 μM
T2 construct: host or cells: HEK-Blue cells (HEK293-derived reporter line)
T2 sequence (Q9NYK1 27-1049): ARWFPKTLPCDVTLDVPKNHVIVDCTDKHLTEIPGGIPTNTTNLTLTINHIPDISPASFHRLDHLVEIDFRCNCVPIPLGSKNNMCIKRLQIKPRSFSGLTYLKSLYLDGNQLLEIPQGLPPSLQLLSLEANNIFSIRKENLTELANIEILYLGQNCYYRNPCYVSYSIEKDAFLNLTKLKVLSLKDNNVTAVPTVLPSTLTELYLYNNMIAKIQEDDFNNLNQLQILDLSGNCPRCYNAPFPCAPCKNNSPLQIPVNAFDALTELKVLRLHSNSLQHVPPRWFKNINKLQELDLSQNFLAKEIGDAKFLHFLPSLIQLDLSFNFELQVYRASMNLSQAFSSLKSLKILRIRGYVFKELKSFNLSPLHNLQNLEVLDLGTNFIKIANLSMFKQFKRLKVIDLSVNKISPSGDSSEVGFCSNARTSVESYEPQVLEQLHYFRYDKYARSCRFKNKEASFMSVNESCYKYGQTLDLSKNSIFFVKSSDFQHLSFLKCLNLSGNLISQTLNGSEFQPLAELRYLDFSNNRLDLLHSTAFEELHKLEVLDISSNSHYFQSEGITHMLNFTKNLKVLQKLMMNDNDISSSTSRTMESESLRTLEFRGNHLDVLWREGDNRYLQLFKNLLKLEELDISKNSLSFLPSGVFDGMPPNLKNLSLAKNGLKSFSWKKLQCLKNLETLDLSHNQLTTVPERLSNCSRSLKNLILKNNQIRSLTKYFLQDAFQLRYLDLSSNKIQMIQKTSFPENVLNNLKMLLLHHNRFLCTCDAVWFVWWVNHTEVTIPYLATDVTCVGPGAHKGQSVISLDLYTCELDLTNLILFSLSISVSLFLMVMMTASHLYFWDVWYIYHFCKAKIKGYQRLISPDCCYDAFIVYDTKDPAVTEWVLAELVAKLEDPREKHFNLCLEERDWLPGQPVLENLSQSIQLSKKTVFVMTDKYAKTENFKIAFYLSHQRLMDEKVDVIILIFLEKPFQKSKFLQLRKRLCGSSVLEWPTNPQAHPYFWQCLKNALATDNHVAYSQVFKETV
In short: as §1

human TLR8 = biological target: T3, human TLR8 (Homo sapiens, UniProt Q9NR97); assay: TLR8 inhibition reporter assay (HEK-Blue cells, SEAP reporter, R848 stimulation); details: HEK-Blue cells overexpressing human TLR8, SEAP reporter, R848 15.9 μM
T3 construct: host or cells: HEK-Blue cells (HEK293-derived reporter line)
T3 sequence (Q9NR97 27-1041): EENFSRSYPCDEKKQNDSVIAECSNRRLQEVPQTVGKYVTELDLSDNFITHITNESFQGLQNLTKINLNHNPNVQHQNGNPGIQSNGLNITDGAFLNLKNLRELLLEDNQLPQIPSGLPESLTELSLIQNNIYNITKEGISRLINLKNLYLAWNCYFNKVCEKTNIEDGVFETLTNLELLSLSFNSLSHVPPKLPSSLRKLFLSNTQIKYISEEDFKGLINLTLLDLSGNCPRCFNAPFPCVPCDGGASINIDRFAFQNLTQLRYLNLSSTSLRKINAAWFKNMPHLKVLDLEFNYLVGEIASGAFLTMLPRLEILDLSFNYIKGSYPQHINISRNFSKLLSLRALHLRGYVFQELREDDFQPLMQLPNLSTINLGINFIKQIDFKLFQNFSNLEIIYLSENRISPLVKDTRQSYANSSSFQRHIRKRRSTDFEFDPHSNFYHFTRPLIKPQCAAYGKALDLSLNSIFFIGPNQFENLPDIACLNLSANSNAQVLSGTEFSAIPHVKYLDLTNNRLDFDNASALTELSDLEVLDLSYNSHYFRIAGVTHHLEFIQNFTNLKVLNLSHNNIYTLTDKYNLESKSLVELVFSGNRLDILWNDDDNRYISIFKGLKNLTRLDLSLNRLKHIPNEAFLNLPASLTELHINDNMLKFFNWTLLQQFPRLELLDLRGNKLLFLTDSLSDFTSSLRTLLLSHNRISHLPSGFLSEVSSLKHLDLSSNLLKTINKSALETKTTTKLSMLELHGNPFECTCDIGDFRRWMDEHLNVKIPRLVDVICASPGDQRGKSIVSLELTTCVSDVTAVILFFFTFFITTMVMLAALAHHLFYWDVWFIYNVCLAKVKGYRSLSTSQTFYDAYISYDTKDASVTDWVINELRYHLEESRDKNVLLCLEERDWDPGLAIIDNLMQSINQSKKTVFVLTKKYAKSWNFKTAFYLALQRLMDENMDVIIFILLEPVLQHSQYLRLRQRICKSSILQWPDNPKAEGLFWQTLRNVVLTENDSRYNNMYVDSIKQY
In short: as §1

SMILES | IC50 (human TLR9) [nM] | IC50 (human TLR7) [nM] | IC50 (human TLR8) [nM]
Cc1c(-c2[nH]c3ccc(C4CCNCC4)cc3c2C(C)C)cn2nnnc2c1C [Example 73, 6-(3-isopropyl-5-(piperidin-4-yl)-1H-indol-2-yl)-7,8-dimethyltetrazolo[1,5-a]pyridine] | 1000 to 50000 | < 100 | < 100
CCc1c(-c2cnc3[nH]c(=O)[nH]c3c2)[nH]c2ccc(C3CCNCC3)cc12 [Example 180, 6-(3-ethyl-5-(piperidin-4-yl)-1H-indol-2-yl)-1,3-dihydro-2H-imidazo[4,5-b]pyridin-2-one] | 1000 to 50000 | 1000 to 50000 | 1000 to 50000
Cc1c(-c2ncnc3[nH]cnc23)[nH]c2ccc(C3CCN(C4CCN(C(C)C)CC4)CC3)cc12 [Example 815, 6-(5-(1′-isopropyl-[1,4′-bipiperidin]-4-yl)-3-methyl-1H-indol-2-yl)-9H-purine] | < 100 | 1000 to 50000 | < 100
CC(C)c1c(-c2ccnc3[nH]ncc23)[nH]c2cc(F)c(C3CCN(CC4CCN(C(C)C)C4)CC3)cc12 (stereo not drawn) [Example 852, 4-(6-fluoro-3-isopropyl-5-(1-((1-isopropylpyrrolidin-3-yl)methyl)piperidin-4-yl)-1H-indol-2-yl)-1H-pyrazolo[3,4-b]pyridine] | 100 to 1000 | < 100 | < 100
Cc1cc(-c2[nH]c3ccc(C4CCNCC4)cc3c2C(C)C)cc2cncn12 [Example 164, 7-(3-isopropyl-5-(piperidin-4-yl)-1H-indol-2-yl)-5-methylimidazo[1,5-a]pyridine] | 100 to 1000 | < 100 | < 100
CC(C)c1c(-c2ccnc3[nH]cc(O)c23)[nH]c2ccc(C3CCNCC3)cc12 [Example 216, 4-(3-isopropyl-5-(piperidin-4-yl)-1H-indol-2-yl)-1H-pyrrolo[2,3-b]pyridin-3-ol] | 1000 to 50000 | 1000 to 50000 | 100 to 1000
CNC(=O)CN1CCC(c2ccc3[nH]c(-c4cc(C)c5nccn5c4)c(C(C)C)c3c2)CC1 [Example 397, 2-(4-(3-isopropyl-2-(8-methylimidazo[1,2-a]pyridin-6-yl)-1H-indol-5-yl)piperidin-1-yl)-N-methylacetamide] | 100 to 1000 | < 100 | < 100
COc1c(C)c(-c2[nH]c3ccc(C4CCN(C(=O)CN(C)C)CC4)cc3c2C(C)C)nn2ncnc12 [Example 451, 2-(dimethylamino)-1-(4-(3-isopropyl-2-(8-methoxy-7-methyl-[1,2,4]triazolo[1,5-b]pyridazin-6-yl)-1H-indol-5-yl)piperidin-1-yl)ethan-1-one] | 1000 to 50000 | < 100 | < 100
Cc1cc(-c2[nH]c3ccc(C4CCN(CC(C)(C)O)CC4)cc3c2C(C)C)c2ccccc2n1 [Example 752, 1-(4-(3-isopropyl-2-(2-methylquinolin-4-yl)-1H-indol-5-yl)piperidin-1-yl)-2-methylpropan-2-ol] | 1000 to 50000 | < 100 | < 100
Cc1cc(-c2[nH]c3ccc(C4CCN(C5CCOCC5)CC4)cc3c2C(C)C)cc2cccnc12 [Example 703, 6-(3-isopropyl-5-(1-(tetrahydro-2H-pyran-4-yl)piperidin-4-yl)-1H-indol-2-yl)-8-methylquinoline] | 1000 to 50000 | < 100 | < 100
CC(C)c1c(-c2ccnc3[nH]ncc23)[nH]c2ccc(C3CCN(C(=O)CN4CCN(c5ccncc5)CC4)CC3)cc12 [Example 591, 1-(4-(3-isopropyl-2-(1H-pyrazolo[3,4-b]pyridin-4-yl)-1H-indol-5-yl)piperidin-1-yl)-2-(4-(pyridin-4-yl)piperazin-1-yl)ethan-1-one] | 100 to 1000 | < 100 | < 100
CC(C)c1c(-c2ccnc3[nH]ncc23)[nH]c2ccc(C3CCN(C(=O)C4CCNCC4)CC3)cc12 [Example 649, (4-(3-isopropyl-2-(1H-pyrazolo[3,4-b]pyridin-4-yl)-1H-indol-5-yl)piperidin-1-yl)(piperidin-4-yl)methanone] | 1000 to 50000 | 100 to 1000 | 100 to 1000
Cc1cc(-c2[nH]c3ccc(C4CCN(Cc5ncn(C)n5)CC4)cc3c2C(C)C)cc2cnnn12 [Example 890, 5-(3-isopropyl-5-(1-((1-methyl-1H-1,2,4-triazol-3-yl)methyl)piperidin-4-yl)-1H-indol-2-yl)-7-methyl-[1,2,3]triazolo[1,5-a]pyridine] | 1000 to 50000 | < 100 | < 100
CC(C)c1c(-c2cnc3c(cnn3C)c2)[nH]c2ccc(C3CCN(C(=O)CN(C)C)CC3)cc12 [Example 504, 2-(dimethylamino)-1-(4-(3-isopropyl-2-(1-methyl-1H-pyrazolo[3,4-b]pyridin-5-yl)-1H-indol-5-yl)piperidin-1-yl)ethan-1-one] | 1000 to 50000 | < 100 | 100 to 1000
